Experimental data reported in patent US10238743B2 (Merck Sharp & Dohme Corp., priority 2014, dated 2019).
pKi: −log10 of the molar value.

Columns and labels:
[1] = target: soluble human BACE1 catalytic domain (Homo sapiens (Human), UniProt P56817); experiment: BACE1 HTRF FRET Assay; format: biochemical; conditions: Ki calculated from IC50 using the Cheng-Prusoff equation; QSY7-APPswe-Eu substrate, pH 5.0; read-out: BACE-1 Ki
Description: Na^+-Acetate pH 5.0; 1% Brij-35; Glycerol; Dimethyl Sulfoxide (DMSO); Recombinant human soluble BACE1 catalytic domain (>95% pure); APP Swedish mutant peptide substrate (QSY7-APP^swe-Eu): QSY7-EISEVNLDAEFC-Europium-amide.
A homogeneous time-resolved FRET assay can be used to determine IC50 values for inhibitors of the soluble human BACE1 catalytic domain. This assay monitors the increase of 620 nm fluorescence that resulted from BACE1 cleavage of an APPswedish APP^swe mutant peptide FRET substrate (QSY7-EISEVNLDAEFC-Europium-amide). This substrate contains an N-terminal QSY7 moiety that serves as a quencher of the C-terminal Europium fluorophore (620 nm Em). In the absence of enzyme activity, 620 nm fluorescence is low in the assay and increased linearly over 3 hours in the presence of uninhibited BACE1 enzyme. Inhibition of BACE1 cleavage of the QSY7-APP^swe-Eu substrate by inhibitors is manifested as a suppression of 620 nm fluorescence.
Varying concentrations of inhibitors at 3× the final desired concentration in a volume of 10 ul are preincubated with purified human BACE1 catalytic domain (3 nM in 10 μl) for 30 minutes at 30° C. in reaction buffer containing 20 mM Na-Acetate pH 5.0, 10% glycerol, 0.1% Brij-35 and 7.5% DSMO. Reactions are initiated by addition of 10 μl of 600 nM QSY7-APP^swe-Eu substrate (200 nM final) to give a final reaction volume of 30 μl in a 384 well Nunc HTRF plate. The reactions are incubated at 30° C. for 1.5 hours. The 620 nm fluorescence is then read on a Rubystar HTRF plate reader (BMG Labtechnologies) using a 50 millisecond delay followed by a 400 millisecond acquisition time window. Inhibitor IC50 values are derived from non-linear regression analysis of concentration response curves. Ki values are then calculated from IC50 values using the Cheng-Prusoff equation using a previously determined […] of 8 μM for the QSY7-APP^swe-Eu substrate at BACE1.

[2] = target: purified human autoBACE-2 (Homo sapiens (Human), UniProt Q9Y5Z0); experiment: BACE-2 Assay (BACE-HTRF assay); format: biochemical; conditions: Ki calculated from IC50 using the Cheng-Prusoff equation; QSY7-EISEVNLDAEFC-Eu-amide substrate, pH 5.0
Chain of purified human autoBACE-2 (Q9Y5Z0 63-473 limits assumed): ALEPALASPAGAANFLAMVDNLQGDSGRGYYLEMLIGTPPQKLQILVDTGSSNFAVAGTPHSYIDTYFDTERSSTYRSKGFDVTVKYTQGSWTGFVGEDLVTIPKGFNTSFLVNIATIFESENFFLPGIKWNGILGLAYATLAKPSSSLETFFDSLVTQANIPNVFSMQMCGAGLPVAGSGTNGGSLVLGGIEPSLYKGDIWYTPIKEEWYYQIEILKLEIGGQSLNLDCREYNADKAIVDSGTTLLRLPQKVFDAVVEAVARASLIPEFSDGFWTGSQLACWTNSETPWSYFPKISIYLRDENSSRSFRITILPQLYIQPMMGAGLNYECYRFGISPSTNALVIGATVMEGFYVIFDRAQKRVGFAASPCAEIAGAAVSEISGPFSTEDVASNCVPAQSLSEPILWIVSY
Method: Inhibitor IC50s at purified human autoBACE-2 are determined in a time-resolved endpoint proteolysis assay that measures hydrolysis of the QSY7-[…]-Eu-amide FRET peptide substrate (BACE-HTRF assay). […] DMSO is present at 5% final concentration in the assay. Following laser excitation of sample wells at 320 nm, the fluorescence signal at 620 nm is collected for 400 ms following a 50 μs delay on a RUBYstar HTRF plate reader (BMG Labtechnologies). Raw RFU data is normalized to maximum (1.0 nM BACE/DMSO) and minimum (no enzyme/DMSO) RFU values. […] The Ki values are calculated from the IC50 using the Cheng-Prusoff equation.

Chain of soluble human BACE1 catalytic domain (P56817 75-416): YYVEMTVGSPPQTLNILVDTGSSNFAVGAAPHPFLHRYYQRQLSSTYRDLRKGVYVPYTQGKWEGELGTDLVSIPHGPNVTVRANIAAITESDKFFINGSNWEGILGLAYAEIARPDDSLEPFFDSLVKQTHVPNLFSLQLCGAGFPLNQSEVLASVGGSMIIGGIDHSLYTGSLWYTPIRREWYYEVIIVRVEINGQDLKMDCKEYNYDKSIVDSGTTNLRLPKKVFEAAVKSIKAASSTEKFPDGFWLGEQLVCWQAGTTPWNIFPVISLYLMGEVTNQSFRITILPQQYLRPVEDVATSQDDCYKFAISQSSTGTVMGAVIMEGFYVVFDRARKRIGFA

| Compound | pKi [1] | pKi [2] |
| --- | --- | --- |
| COc1cnc2c(Nc3ccc4c(c3)[C@@]3(C)NC(=N)N(C)S(=O)(=O)[C@H]3CCC4)nccc2n1 [Example 44, (4aS,11bR)-2-imino-10-((2-methoxypyrido[3,4-b]pyrazin-5-yl)amino)-3,11b-dimethyl-1,2,3,4a,5,6,7,11b-octahydrobenzo[6,7]cyclohepta[1,2-e][1,2,4]-thiadiazine 4,4-dioxide] | 7.35 | 6.76 |
| COc1cnc2c(Nc3ccc4c(c3)[C@@]3(C)NC(=N)N(C)S(=O)(=O)[C@H]3CCC4)ccnc2n1 [Example 45, (4aS,11bR)-2-imino-10-((3-methoxypyrido[2,3-b]pyrazin-8-yl)amino)-3,11b-dimethyl-1,2,3,4a,5,6,7,11b-octahydrobenzo[6,7]cyclohepta[1,2-e][1,2,4]-thiadiazine 4,4-dioxide] | 6.26 | 5.61 |
| COc1cnc2c(Nc3ccc4c(c3)[C@@]3(C)NC(=N)N(C)S(=O)(=O)[C@H]3CCC4)nccc2c1 [Example 46, (4aS,11bR)-2-imino-10-((3-methoxy-1,7-naphthyridin-8-yl)amino)-3,11b-dimethyl-1,2,3,4a,5,6,7,11b-octahydrobenzo[6,7]cyclohepta[1,2-e][1,2,4]-thiadiazine 4,4-dioxide] | 6.97 | 6.60 |
| CN1C(=N)N[C@]2(C)c3cc(NC4CCCC4)ccc3OCC[C@@H]2S1(=O)=O [Example 47, (4aS,11bR)-10-(cyclopentylamino)-2-imino-3,11b-dimethyl-2,3,4a,5,6,11b-hexahydro-1H-benzo[2,3]oxepino[4,5-e][1,2,4]thiadiazine 4,4-dioxide] | 6.46 | 6.15 |
| CN1C(=N)N[C@]2(C)c3cc(NCC4CC4)ccc3OCC[C@@H]2S1(=O)=O [Example 48, (4aS,11bR)-10-((cyclopropylmethyl)amino)-2-imino-3,11b-dimethyl-2,3,4a,5,6,11b-hexahydro-1H-benzo[2,3]oxepino[4,5-e][1,2,4]thiadiazine 4,4-dioxide] | 6.06 | 5.70 |
| CCCNc1ccc2c(c1)[C@@]1(C)NC(=N)N(C)S(=O)(=O)[C@H]1CCO2 [Example 49, (4aS,11bR)-2-imino-3,11b-dimethyl-10-(propylamino)-2,3,4a,5,6,11b-hexahydro-1H-benzo[2,3]oxepino[4,5-e][1,2,4]thiadiazine 4,4-dioxide] | 6.04 | 5.70 |
